test system: Rhizoctonia solani AG-1; experiment: Fungicidal activity against Rice Sheath Blight (RSB) disease; conditions: Rice Sheath Blight; concentration 50 ppm

SMILES	RSB (Fungicidal Activities, C.V.)
COC=C(C(=O)OC)c1ccccc1CON=C(C)c1cccc(OC(F)=C(c2ccc(F)cc2)C(F)(F)F)c1 [Compound 160]	70%
CNC(=O)C(=NOC)c1ccccc1CON=Cc1cccc(OC(F)=C(c2cccc(OC)c2)C(F)(F)F)c1 [Compound 143]	58%
COC=C(C(=O)OC)c1ccccc1CON=Cc1cccc(OC(F)=Cc2cc(C)cc(C)c2)c1 [Compound 5]	55%
CNC(=O)C(=NOC)c1ccccc1CON=Cc1cccc(OC(F)=Cc2ccc(C)c(C)c2)c1 [Compound 32]	41%

test system: Puccinia recondita; experiment: Fungicidal activity against Wheat Leaf Rust (WLR) disease; format: in vivo; conditions: 2 ppm

SMILES	Fungicidal Activities WLR (C.V.)
COC=C(C(=O)OC)c1ccccc1CON=C(C)c1cccc(OC(F)=C(c2ccc(F)cc2)C(F)(F)F)c1 [Compound 160]	99%

same assay, conditions: Wheat Leaf Rust; concentration 2 ppm

SMILES	WLR (Fungicidal Activities, C.V.)
CNC(=O)C(=NOC)c1ccccc1CON=Cc1cccc(OC(F)=C(c2cccc(OC)c2)C(F)(F)F)c1 [Compound 143]	36%
COC=C(C(=O)OC)c1ccccc1CON=Cc1cccc(OC(F)=Cc2cc(C)cc(C)c2)c1 [Compound 5]	96%
CNC(=O)C(=NOC)c1ccccc1CON=Cc1cccc(OC(F)=Cc2ccc(C)c(C)c2)c1 [Compound 32]	3%

same assay, conditions: Wheat Leaf Rust; concentration 10 ppm

SMILES	WLR (Fungicidal Activities, C.V.)
COC=C(C(=O)OC)c1ccccc1CON=C(C)c1cccc(OC(F)=C(c2ccc(F)cc2)C(F)(F)F)c1 [Compound 160]	100%
COC=C(C(=O)OC)c1ccccc1CON=Cc1cccc(OC(F)=Cc2cc(C)cc(C)c2)c1 [Compound 5]	100%

same assay, conditions: Wheat Leaf Rust; concentration 50 ppm

SMILES	WLR (Fungicidal Activities, C.V.)
COC=C(C(=O)OC)c1ccccc1CON=C(C)c1cccc(OC(F)=C(c2ccc(F)cc2)C(F)(F)F)c1 [Compound 160]	100%
CNC(=O)C(=NOC)c1ccccc1CON=Cc1cccc(OC(F)=C(c2cccc(OC)c2)C(F)(F)F)c1 [Compound 143]	90%
COC=C(C(=O)OC)c1ccccc1CON=Cc1cccc(OC(F)=Cc2cc(C)cc(C)c2)c1 [Compound 5]	100%
CNC(=O)C(=NOC)c1ccccc1CON=Cc1cccc(OC(F)=Cc2ccc(C)c(C)c2)c1 [Compound 32]	99%

test system: Phytophthora infestans; experiment: not given; format: in vivo; conditions: Tomato Late Blight; concentration 50 ppm

SMILES	TLB (Fungicidal Activities, C.V.)
COC=C(C(=O)OC)c1ccccc1CON=C(C)c1cccc(OC(F)=C(c2ccc(F)cc2)C(F)(F)F)c1 [Compound 160]	92%
CNC(=O)C(=NOC)c1ccccc1CON=Cc1cccc(OC(F)=C(c2cccc(OC)c2)C(F)(F)F)c1 [Compound 143]	0%
COC=C(C(=O)OC)c1ccccc1CON=Cc1cccc(OC(F)=Cc2cc(C)cc(C)c2)c1 [Compound 5]	28%
CNC(=O)C(=NOC)c1ccccc1CON=Cc1cccc(OC(F)=Cc2ccc(C)c(C)c2)c1 [Compound 32]	0%

test system: Botrytis cinerae; experiment: Fungicidal activity against Cucumber Gray Mold Rot (CGM) disease; format: in vivo; conditions: Cucumber Gray Mold Rot; concentration 50 ppm
Experimental: Botrytis cinerae, which was isolated from cucumber infected thereby, was inoculated on a PDA agar medium and cultured under a 12L/12D cycle at 25° C. for 15 days to form spore. The spores were scraped, filtered through a gauze and then suspended in potato dextrose liquid medium at a concentration of 1×10^6 spore/ml. The spore suspension was sprayed on a cucumber plant having one leaf. The cucumber plant was held in a humidified room at 20° C. for 3 days. L.A. on a leaf was measured to calculate an C.V.

SMILES	CGM (Fungicidal Activities, C.V.)
COC=C(C(=O)OC)c1ccccc1CON=C(C)c1cccc(OC(F)=C(c2ccc(F)cc2)C(F)(F)F)c1 [Compound 160]	36%
CNC(=O)C(=NOC)c1ccccc1CON=Cc1cccc(OC(F)=C(c2cccc(OC)c2)C(F)(F)F)c1 [Compound 143]	0%
COC=C(C(=O)OC)c1ccccc1CON=Cc1cccc(OC(F)=Cc2cc(C)cc(C)c2)c1 [Compound 5]	17%
CNC(=O)C(=NOC)c1ccccc1CON=Cc1cccc(OC(F)=Cc2ccc(C)c(C)c2)c1 [Compound 32]	8%

test system: Erysiphae graminis; experiment: Fungicidal activity against Barley Powdery Mildew (BPM) disease; format: in vivo; conditions: 2 ppm

SMILES	Fungicidal Activities BPM (C.V.)
COC=C(C(=O)OC)c1ccccc1CON=C(C)c1cccc(OC(F)=C(c2ccc(F)cc2)C(F)(F)F)c1 [Compound 160]	99%

same assay, conditions: Barley Powdery Mildew; concentration 2 ppm

SMILES	BPM (Fungicidal Activities, C.V.)
CNC(=O)C(=NOC)c1ccccc1CON=Cc1cccc(OC(F)=C(c2cccc(OC)c2)C(F)(F)F)c1 [Compound 143]	0%
COC=C(C(=O)OC)c1ccccc1CON=Cc1cccc(OC(F)=Cc2cc(C)cc(C)c2)c1 [Compound 5]	98%
CNC(=O)C(=NOC)c1ccccc1CON=Cc1cccc(OC(F)=Cc2ccc(C)c(C)c2)c1 [Compound 32]	0%

same assay, conditions: Barley Powdery Mildew; concentration 10 ppm

SMILES	BPM (Fungicidal Activities, C.V.)
COC=C(C(=O)OC)c1ccccc1CON=C(C)c1cccc(OC(F)=C(c2ccc(F)cc2)C(F)(F)F)c1 [Compound 160]	100%
COC=C(C(=O)OC)c1ccccc1CON=Cc1cccc(OC(F)=Cc2cc(C)cc(C)c2)c1 [Compound 5]	100%

same assay, conditions: Barley Powdery Mildew; concentration 50 ppm

SMILES	BPM (Fungicidal Activities, C.V.)
COC=C(C(=O)OC)c1ccccc1CON=C(C)c1cccc(OC(F)=C(c2ccc(F)cc2)C(F)(F)F)c1 [Compound 160]	100%
CNC(=O)C(=NOC)c1ccccc1CON=Cc1cccc(OC(F)=C(c2cccc(OC)c2)C(F)(F)F)c1 [Compound 143]	93%
COC=C(C(=O)OC)c1ccccc1CON=Cc1cccc(OC(F)=Cc2cc(C)cc(C)c2)c1 [Compound 5]	100%
CNC(=O)C(=NOC)c1ccccc1CON=Cc1cccc(OC(F)=Cc2ccc(C)c(C)c2)c1 [Compound 32]	100%

test system: Pyricularia oryzae Carvara KA301; experiment: not given; format: in vivo; conditions: 2 ppm

SMILES	Fungicidal Activities RCV (C.V.)
COC=C(C(=O)OC)c1ccccc1CON=C(C)c1cccc(OC(F)=C(c2ccc(F)cc2)C(F)(F)F)c1 [Compound 160]	86%

same assay, conditions: Rice Blast; concentration 2 ppm

SMILES	RCV (Fungicidal Activities, C.V.)
CNC(=O)C(=NOC)c1ccccc1CON=Cc1cccc(OC(F)=C(c2cccc(OC)c2)C(F)(F)F)c1 [Compound 143]	83%
CNC(=O)C(=NOC)c1ccccc1CON=Cc1cccc(OC(F)=Cc2ccc(C)c(C)c2)c1 [Compound 32]	99%

same assay, conditions: Rice Blast; concentration 10 ppm

SMILES	RCV (Fungicidal Activities, C.V.)
COC=C(C(=O)OC)c1ccccc1CON=C(C)c1cccc(OC(F)=C(c2ccc(F)cc2)C(F)(F)F)c1 [Compound 160]	100%

same assay, conditions: Rice Blast; concentration 50 ppm

SMILES	RCV (Fungicidal Activities, C.V.)
COC=C(C(=O)OC)c1ccccc1CON=C(C)c1cccc(OC(F)=C(c2ccc(F)cc2)C(F)(F)F)c1 [Compound 160]	100%
CNC(=O)C(=NOC)c1ccccc1CON=Cc1cccc(OC(F)=C(c2cccc(OC)c2)C(F)(F)F)c1 [Compound 143]	100%
COC=C(C(=O)OC)c1ccccc1CON=Cc1cccc(OC(F)=Cc2cc(C)cc(C)c2)c1 [Compound 5]	41%
CNC(=O)C(=NOC)c1ccccc1CON=Cc1cccc(OC(F)=Cc2ccc(C)c(C)c2)c1 [Compound 32]	100%

Reference: patent US6552080B1, “Fungicidal compounds having a fluorovinyl-or fluoropropenyl-oxyphenyloxime moiety and process for the preparation thereof” (Korea Research Institute of Chemical Technology, priority 1999, dated 2003)
